# Data reported in patent US20150132328A1 (priority 2011, published 2015).
# Where two headings read alike, the source gives them in different places.
# Assays:
# THP-1 cells = test system: THP-1 cells
# Source text: We proceeded to perform some related to the proliferative stimulation of the peptide in presence of other divalent cations such as magnesium, copper, and manganese.
# newborn rat thymocytes = test system: newborn rat thymocytes
# Source text: It was used an octapeptide with similar weight for the elaboration of the complex, to which was just the proline (4) and Glycine (5) original amino acids were interchanged by proline (4) and Glycine (5) resulting as […].
# human leukocytes = conditions: for Phagocytosis: peptide 10^-10M + zinc 10^-9M
# Source text: In order to test a different effect of the proliferation, we decided to investigate the effect of peptide+zinc versus peptide+zinc+DTPA on human leukocytes phagocytosis.
# CD4 co-receptor = conditions: With-A
# Description: (§1) The Analysis was performed by flow cytometry, using fluorescence intensity histograms, which allowed us to identify three regions: expression negative, low and high.
# CD8 co-receptor = conditions: With-A
# Description: as §1
substance,measurement,setting,value
Peptide LEDGPKFL + Zinc [IMMP],Concentration at which plateau / maximum response of stimulation is reached,THP-1 cells,10-10 M
same,Increase of potency by adding the ion (times),THP-1 cells,~500 times
same,Increase of the potency of the peptide by zinc (times),THP-1 cells,more than 200 times
same,EC50,THP-1 cells; read-out: Effective concentration 50,0.01 nM
same,Increase of thymocytes proliferation,"newborn rat thymocytes; 10^-10 M, With-A",35%
same,Proliferation (% with respect to the control),"newborn rat thymocytes; 10^−6 (918 ng/mL), 24 hours",106.6 ± 3.0%
same,Proliferation (% with respect to the control),"newborn rat thymocytes; 10^−6 (918 ng/mL), Con A 50 pg/mL",126.6 ± 3.0%
same,Proliferation (% with respect to the control),"newborn rat thymocytes; 10^−7 (91.8 ng/mL), 24 hours",125.1 ± 2.6 %
same,Proliferation (% with respect to the control),"newborn rat thymocytes; 10^−7 (91.8 ng/mL), Con A 50 pg/mL",125.1 ± 2.6 %
same,Proliferation (% with respect to the control),"newborn rat thymocytes; 10^−7.5 (9.58 ng/mL), Con A 50 pg/mL",127.4 ± 3.0 %
same,Proliferation (% with respect to the control),"newborn rat thymocytes; 10^−8 (9.18 ng/mL), 24 hours",120.3 ± 2.7 %
same,Proliferation (% with respect to the control),"newborn rat thymocytes; 10^−8 (9.18 ng/mL), Con A 50 pg/mL",128.3 ± 2.7 %
same,Proliferation (% with respect to the control),"newborn rat thymocytes; 10^−9 (0.91 ng/mL), 24 hours",123.3 ± 3.4 %
same,Proliferation (% with respect to the control),"newborn rat thymocytes; 10^−9 (0.91 ng/mL), Con A 50 pg/mL",133.3 ± 3.4 %
same,Proliferation (% with respect to the control),"newborn rat thymocytes; 10^−10 (0.09 ng/mL), 24 hours",135.6 ± 3.1 %
same,Proliferation (% with respect to the control),"newborn rat thymocytes; 10^−10 (0.09 ng/mL), Con A 50 pg/mL",135.6 ± 3.1 %
same,Proliferation (% with respect to the control),"newborn rat thymocytes; 10^−11 (0.009 ng/mL), 24 hours",130.5 ± 1.4 %
same,Proliferation (% with respect to the control),"newborn rat thymocytes; 10^−11 (0.009 ng/mL), Con A 50 pg/mL",130.5 ± 1.4 %
same,Proliferation (% with respect to the control),"newborn rat thymocytes; 10^−12 (0.0009 ng/mL), Con A 50 pg/mL",120.3 ± 3.2 %
same,Phagocytosis,human leukocytes; 24 h,56 ± 2 arbitrary fluorescence intensity units
same,Phagocytosis,human leukocytes; 48 h,185 ± 18 arbitrary fluorescence intensity units
same,Increase of phagocytosis,human leukocytes; 48 hours,about four times
same,"Expression Intensity of CD4, Fluorescence, High",CD4 co-receptor; [IMMP] 10^−6 M,193.0 ± 3.3 arbitrary fluorescence intensity units
same,"Expression Intensity of CD4, Fluorescence, Low",CD4 co-receptor; [IMMP] 10^−6 M,72.9 ± 7.4 arbitrary fluorescence intensity units
same,"Expression Intensity of CD4, Fluorescence, Negative",CD4 co-receptor; [IMMP] 10^−6 M,5.0 ± 0.9 arbitrary fluorescence intensity units
same,"Expression Intensity of CD4, Fluorescence, High",CD4 co-receptor; [IMMP] 10^−7 M,188.4 ± 4.9 arbitrary fluorescence intensity units
same,"Expression Intensity of CD4, Fluorescence, Low",CD4 co-receptor; [IMMP] 10^−7 M,68.6 ± 8.0 arbitrary fluorescence intensity units
same,"Expression Intensity of CD4, Fluorescence, Negative",CD4 co-receptor; [IMMP] 10^−7 M,4.5 ± 0.9 arbitrary fluorescence intensity units
same,"Expression Intensity of CD4, Fluorescence, High",CD4 co-receptor; [IMMP] 10^−8 M,181.1 ± 4.7 arbitrary fluorescence intensity units
same,"Expression Intensity of CD4, Fluorescence, Low",CD4 co-receptor; [IMMP] 10^−8 M,71.0 ± 6.4 arbitrary fluorescence intensity units
same,"Expression Intensity of CD4, Fluorescence, Negative",CD4 co-receptor; [IMMP] 10^−8 M,4.7 ± 0.3 arbitrary fluorescence intensity units
same,"Expression Intensity of CD4, Fluorescence, High",CD4 co-receptor; [IMMP] 10^−9 M,196.1 ± 5.4 arbitrary fluorescence intensity units
same,"Expression Intensity of CD4, Fluorescence, Low",CD4 co-receptor; [IMMP] 10^−9 M,69.5 ± 5.0 arbitrary fluorescence intensity units
same,"Expression Intensity of CD4, Fluorescence, Negative",CD4 co-receptor; [IMMP] 10^−9 M,4.5 ± 0.1 arbitrary fluorescence intensity units
same,"Expression Intensity of CD4, Fluorescence, High",CD4 co-receptor; [IMMP] 10^−10 M,194.1 ± 10.0 arbitrary fluorescence intensity units
same,"Expression Intensity of CD4, Fluorescence, Low",CD4 co-receptor; [IMMP] 10^−10 M,69.6 ± 5.2 arbitrary fluorescence intensity units
same,"Expression Intensity of CD4, Fluorescence, Negative",CD4 co-receptor; [IMMP] 10^−10 M,5.0 ± 0.4 arbitrary fluorescence intensity units
same,"Expression Intensity of CD4, Fluorescence, High",CD4 co-receptor; [IMMP] 10^−11 M,196.1 ± 5.4 arbitrary fluorescence intensity units
same,"Expression Intensity of CD4, Fluorescence, Low",CD4 co-receptor; [IMMP] 10^−11 M,69.5 ± 7.0 arbitrary fluorescence intensity units
same,"Expression Intensity of CD4, Fluorescence, Negative",CD4 co-receptor; [IMMP] 10^−11 M,4.5 ± 0.1 arbitrary fluorescence intensity units
same,"Expression Intensity of CD4, Fluorescence, High",CD4 co-receptor; [IMMP] 10^−12 M,194.1 ± 7.3 arbitrary fluorescence intensity units
same,"Expression Intensity of CD4, Fluorescence, Low",CD4 co-receptor; [IMMP] 10^−12 M,69.6 ± 7.2 arbitrary fluorescence intensity units
same,"Expression Intensity of CD4, Fluorescence, Negative",CD4 co-receptor; [IMMP] 10^−12 M,5.0 ± 0.4 arbitrary fluorescence intensity units
same,"Expression Intensity of CD8, Fluorescence, High",CD8 co-receptor; [IMMP] 10^−6 M,135.9 ± 3.3 arbitrary fluorescence intensity units
same,"Expression Intensity of CD8, Fluorescence, Low",CD8 co-receptor; [IMMP] 10^−6 M,49.9 ± 37.4 arbitrary fluorescence intensity units
same,"Expression Intensity of CD8, Fluorescence, Negative",CD8 co-receptor; [IMMP] 10^−6 M,3.1 ± 0.5 arbitrary fluorescence intensity units
same,"Expression Intensity of CD8, Fluorescence, High",CD8 co-receptor; [IMMP] 10^−7 M,134.5 ± 4.9 arbitrary fluorescence intensity units
same,"Expression Intensity of CD8, Fluorescence, Low",CD8 co-receptor; [IMMP] 10^−7 M,55.1 ± 4.9 arbitrary fluorescence intensity units
same,"Expression Intensity of CD8, Fluorescence, Negative",CD8 co-receptor; [IMMP] 10^−7 M,2.4 ± 0.9 arbitrary fluorescence intensity units
same,"Expression Intensity of CD8, Fluorescence, High",CD8 co-receptor; [IMMP] 10^−8 M,126.1 ± 4.7 arbitrary fluorescence intensity units
same,"Expression Intensity of CD8, Fluorescence, Low",CD8 co-receptor; [IMMP] 10^−8 M,39.2 ± 5.4 arbitrary fluorescence intensity units
same,"Expression Intensity of CD8, Fluorescence, Negative",CD8 co-receptor; [IMMP] 10^−8 M,3.2 ± 0.3 arbitrary fluorescence intensity units
same,"Expression Intensity of CD8, Fluorescence, High",CD8 co-receptor; [IMMP] 10^−9 M,139.8 ± 5.4 arbitrary fluorescence intensity units
same,"Expression Intensity of CD8, Fluorescence, Low",CD8 co-receptor; [IMMP] 10^−9 M,32.7 ± 5.0 arbitrary fluorescence intensity units
same,"Expression Intensity of CD8, Fluorescence, Negative",CD8 co-receptor; [IMMP] 10^−9 M,3.2 ± 0.1 arbitrary fluorescence intensity units
same,"Expression Intensity of CD8, Fluorescence, High",CD8 co-receptor; [IMMP] 10^−10 M,126.5 ± 7.3 arbitrary fluorescence intensity units
same,"Expression Intensity of CD8, Fluorescence, Low",CD8 co-receptor; [IMMP] 10^−10 M,45.8 ± 3.2 arbitrary fluorescence intensity units
same,"Expression Intensity of CD8, Fluorescence, Negative",CD8 co-receptor; [IMMP] 10^−10 M,4.1 ± 0.4 arbitrary fluorescence intensity units
same,"Expression Intensity of CD8, Fluorescence, High",CD8 co-receptor; [IMMP] 10^−11 M,196.1 ± 5.4 arbitrary fluorescence intensity units
same,"Expression Intensity of CD8, Fluorescence, Low",CD8 co-receptor; [IMMP] 10^−11 M,56.5 ± 4.0 arbitrary fluorescence intensity units
same,"Expression Intensity of CD8, Fluorescence, Negative",CD8 co-receptor; [IMMP] 10^−11 M,3.5 ± 0.1 arbitrary fluorescence intensity units
same,"Expression Intensity of CD8, Fluorescence, High",CD8 co-receptor; [IMMP] 10^−12 M,194.1 ± 7.3 arbitrary fluorescence intensity units
same,"Expression Intensity of CD8, Fluorescence, Low",CD8 co-receptor; [IMMP] 10^−12 M,58.1 ± 3.2 arbitrary fluorescence intensity units
